Where two headings read alike, the source gives them in different places.
Tests used:
Du145 prostate cancer = assay: MTT proliferation inhibition, Du145; format: cell-based; settings: Homo sapiens, DU-145, read-out: Proliferation inhibition rate, DU145 Prostate cancer
Description: (§1) 1. Cytotoxicity Assay Using Human Tumor Cell Lines
(§2) Paclitaxel was used as the positive drug.

HCT 116 colon cancer = assay: MTT proliferation inhibition, HCT 116; format: cell-based; settings: Homo sapiens, HCT-116, read-out: Proliferation inhibition rate, HCT 116 Colon cancer
Description: as §1, §2

[1] = Caco-2 cell monolayer membrane transport assay (Papp and recovery); format: in vitro ADME; settings: human, Caco-2, Caco-2, A-B
Description: Caco-2 Cell Monolayer Membrane Transport Assay
Human-derived colorectal adenocarcinoma cell line Caco-2 cell monolayer model was used to study the bidirectional transport of the target compounds from the apical (AP) side to the basolateral (BL) side and from BL side to AP side. HPLC was used for quantitative analysis to calculate transport parameters, apparent permeability coefficient (Papp) and the efflux ratio.

[2] = In vivo oral bioavailability assay in rats; settings: rat; for AUC(0-t): 0-24 hours; for MRT inf: read-out: MRT0-∞
Description: The compound PCMI-08 was synthesized and detected according to the methods provided in the present invention. The internal standard, paclitaxel, was purchased from China's National Institute for the Control of Pharmaceutical and Biological Products (NICPBP). Chromatography-grade acetonitrile was purchased from Sigma-Aldrich Inc. Tween 80 and ethyl acetate were purchased from Aladdin reagent Inc. Male S.D. rats were purchased from Beijing Weitonglihua Inc. and raised in animal house for two weeks.
200 mg of PCMI-08 was dissolved in 4 ml of a mixed solution of Tween 80 and anhydrous ethanol (1:1) to prepare a stock solution at 50 mg/ml and normal saline was added to adjust to a suitable concentration. 12 male S.D. rats (300 g of body weight) were taken and divided into two groups after overnight fasting. One group was treated with intravenous injection (5 mg/kg) and the other group was treated orally (60 mg/kg). Blood was sampled in the intravenous group at 0th min, 5th min, 10th min, 20th min, 40th min, 1st h, 2nd h, 4th h, 6th h, 8th h, 12th h, 24th h, while the oral group at 5th min, 15th min, 30th min, 45th min, 1st h, 2nd h, 4th h, 6th h, 8th h, 12th h, 24th h. After 10 min centrifugation of plasma at 4500 rpm, the upper serum was taken and transferred to the corresponding EP tube, placed in a −40° C. freezer for assay.
Agilent 1100 series configuration: Agilent G1313A HPLC autosampler device, 150 mm×2.1 mm C18 Thermo column (particle size 3 μm) reversed-phase column, detection wavelength at 230 nm, column temperature at 30° C., mobile phase of acetonitrile/water (7:3), a flow rate at 0.2 ml/min, injection volume of 20 μl. The mass spectrometry (MS) combined was Thermo Finnigan TSQ Quantum triple quadrupole configurated with electrospray ionization (ESI) in the positive ion mode. The parameters of MS analysis were as follows: spray chamber voltage, 4.0 kv; heated capillary temperature, 350° C.; protective gas (nitrogen); 20 psi; auxiliary gas (nitrogen): 5 psi; collision gas (argon); pressure: 1.5 mmTorr.; Collision energy: CA 17 eV; FA and IFA were 19 eV; IS was 15 eV.
Paclitaxel was selected as an internal standard with a retention time of 3.07 min. Retention time of PCMI-08 was 5.13 min. MS detection condition to PCMI-08 was set as follows: 957→901 m/z; paclitaxel as an internal standard. Detection conditions: 876→308 m/z. The concentration range of the standard curve of PCMI-08 was 5-10,000 ng/ml (γ^2>0.99) and the minimum detection limit was 5 ng/ml.
100 μL of plasma samples were taken, into which 100 μL of the internal standard (paclitaxel, 500 ng/ml acetonitrile solution) was added, followed by addition of 3 ml of ethyl acetate after well homogenized via vortex, after 5 min shaking, centrifuging for 8 min at a rotating speed of 4500 rpm. The supernatant was transferred to a clean EP tube with nitrogen to blow to dry under heating condition. After reconstitution with 120 μL mobile phase (CH3CN/H2O=7:3), the solution was centrifuged at 12,000 rpm for 3 min, 100 μl of supernatant was taken and transferred to an autosampler vial. After LC-MS/MS detection, statistical data and pharmacokinetic parameters were processed by Xcalibur® (version 1.3) software (Thermo Finnigan).

[3] = male, Sprague-Dawley, plasma, intravenous administration 5 mg/kg
[4] = male, Sprague-Dawley, plasma, oral administration 60 mg/kg

CO[C@H]1C[C@H]2OC[C@@]2(OC(C)=O)[C@H]2[C@H](OC(=O)c3ccccc3)[C@]34OC(=O)O[C@H]3[C@H](OC(=O)[C@H](O)[C@@H](NC(=O)OC(C)(C)C)c3ccccc3)C(C)=C([C@@H](OC(=O)N(C)C)C(=O)[C@]12C)C4(C)C [PCMI-08]
inhibition at 1 µM (Du145 prostate cancer): 86.7% | inhibition at 1 µM (HCT 116 colon cancer): 58.7% | Papp A→B ([1]; Mean, read-out: Papp A-B, Mean): > 100 nm/s | recovery ([1]; Mean, read-out: Recovery rate in mass, Mean): 99.4% | Papp A→B ([1]; Sample-01, read-out: Papp A-B, Sample-01): 195 nm/s | recovery ([1]; Sample-01, read-out: Recovery rate in mass, Sample-01): 102% | Papp A→B ([1]; Sample-02, read-out: Papp A-B, Sample-02): 173 nm/s | recovery ([1]; Sample-02, read-out: Recovery rate in mass, Sample-02): 97% | half-life ([2]; male, Sprague-Dawley, plasma, other: intravenous and oral (summary over both arms), route not specified, read-out: half-life (converted)): ~10 h | AUC(0-inf) [2, 3]: 4.05 ± 1.86 µg·h/mL | Cmax [2, 3]: 11 ± 2.68 µg/mL | Tmax [2, 3]: 0 h | AUC(0-t) [2, 3]: 3.44 ± 1.48 µg·h/mL | MRT inf [2, 3]: 10.1 ± 2.6 h | half-life ([2]; male, Sprague-Dawley, plasma, intravenous administration 5 mg/kg, read-out: t1/2 (converted)): 10.2 ± 1.72 h | AUC(0-inf) [2, 4]: 32 ± 8.54 µg·h/mL | Cmax [2, 4]: 2.12 ± 0.454 µg/mL | Tmax [2, 4]: 3 ± 1.1 h | AUC(0-t) [2, 4]: 25.3 ± 6.15 µg·h/mL | MRT inf [2, 4]: 15.2 ± 1.71 h | half-life ([2]; male, Sprague-Dawley, plasma, oral administration 60 mg/kg, read-out: t1/2 (converted)): 10.4 ± 1.14 h | bioavailability ([2]; male, Sprague-Dawley, plasma, oral, 60 mg/kg, oral 60 mg/kg vs intravenous 5 mg/kg, read-out: F, absolute oral bioavailability): 65.8% | F, absolute oral bioavailability ([2]; oral 60 mg/kg vs intravenous 5 mg/kg): 65.79% | mean retention time ([2]; route not specified): ≥ 10 h

From US9890175B2, “Taxane compound, and preparation method and use thereof” (JIANGSU TASLY DIYI PHARMACEUTICAL CO., LTD., priority 2013, dated 2018)
